Values joined by “and” are separate entries in the source; they are usually repeats but may differ in a detail not shown here. Equal entries are not always repeated. Where two headings read alike, the source gives them in different places.
Assays:
[1] = tested on: DabiOBP14; assay type: binding, Dioryctria abietella; conditions: for Ki: competitive displacement of 1-NPN, three replicates, mean ± SE, read-out: OBP14 Ki (dissociation constant)
Procedure: In the binding assays, we selected 100 compounds derived from host/non-host plants and man-made insecticides widely used for the control of lepidopteran pests, representing 88 general odorants (21 esters, 21 alcohols, 14 aldehydes, 13 alkenes, seven ketones, 11 alkanes and one acid) and 12 insecticides. These compounds and N-phenyl-1-naphthylamine (1-NPN) were purchased from Aladdin and Sigma-Aldrich, with the highest available purity. They were first diluted into 100 mM, using methanol (HPLC purity grade, ≥99.9%) as a stock solution. The concentrations of the work solution for each ligand and 1-NPN were set at 1 mM.
In order to measure the binding properties of the DabiOBPs to the 100 ligands, competitive binding assays were performed on a RF5301PC fluorescence spectrophotometer (Shimadzu, Japan). The concentrations of DabiOBPs and the fluorescent probe 1-NPN were set at 2 μM. The binding of DabiOBPs to 1-NPN in 20 mM Tris-HCl buffer (pH 7.4) was measured by adding final concentrations of 2–16 μM 1-NPN. Accordingly, binding constants (K1-NPN) of the DabiOBPs and 1-NPN were calculated using GraphPad Prism 7 (GraphPad Software Inc., San Diego, CA). The binding of the DabiOBPs to various ligands was conducted by adding different concentrations of ligands (2, 4, 6, 8, 12, 16 and 20 μM) into the DabiOBP5/1-NPN (each 2 μM) or DabiOBP14/1-NPN (each 2 μM) mixtures. For the ligands replacing over a half of 1-NPN fluorescence (50%) at 20 μM, three replicates were performed. The excitation wavelength was set at 337 nm and the emission peaks were recorded at around 400 nm. The dissociation constants (Ki) of the tested ligands to DabiOBPs were computed, using the equation: Ki = [IC50]/(1 + [1-NPN]/K1-NPN), where [1-NPN] was the free concentration of 1-NPN and IC50 was the concentration of ligands replacing 50% of 1-NPN fluorescence.

[2] = target: T1, DabiOBP5 (Dioryctria abietella, UniProt A0A8E6HS34); assay: Competitive fluorescence binding assay with 1-NPN probe, recombinant DabiOBP5
T1 sequence (A0A8E6HS34 19-139): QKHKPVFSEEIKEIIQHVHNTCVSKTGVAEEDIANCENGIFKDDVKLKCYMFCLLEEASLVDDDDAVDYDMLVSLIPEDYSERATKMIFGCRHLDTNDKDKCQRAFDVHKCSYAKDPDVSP
From the text: In the binding assays, we selected 100 compounds derived from host/non-host plants and man-made insecticides widely used for the control of lepidopteran pests, representing 88 general odorants (21 esters, 21 alcohols, 14 aldehydes, 13 alkenes, seven ketones, 11 alkanes and one acid) and 12 insecticides. These compounds and N-phenyl-1-naphthylamine (1-NPN) were purchased from Aladdin and Sigma-Aldrich, with the highest available purity. […] The concentrations of the work solution for each ligand and 1-NPN were set at 1 mM.
In order to measure the binding properties of the DabiOBPs to the 100 ligands, competitive binding assays were performed on a RF5301PC fluorescence spectrophotometer (Shimadzu, Japan). The concentrations of DabiOBPs and the fluorescent probe 1-NPN were set at 2 μM. […] Accordingly, binding constants (K1-NPN) of the DabiOBPs and 1-NPN were calculated using GraphPad Prism 7 (GraphPad Software Inc., San Diego, CA). […] For the ligands replacing over a half of 1-NPN fluorescence (50%) at 20 μM, three replicates were performed. The excitation wavelength was set at 337 nm and the emission peaks were recorded at around 400 nm.

[3] = ligand at 20 μM, DabiOBP14/1-NPN each 2 μM, Tris-HCl pH 7.4, NB = no binding
[4] = ligand at 20 μM; DabiOBP5/1-NPN each 2 μM; Tris-HCl pH 7.4; NB = no binding; read-out: OBP5 F.D. (%) fluorescence displacement percent
[5] = ligand at 20 μM; DabiOBP5/1-NPN each 2 μM; Tris-HCl pH 7.4; NB = no binding
[6] = pH 7.4, read-out: OBP5 F.D. (%) fluorescence displacement percent
[7] = read-out: OBP5 Ki (dissociation constant); competitive displacement of 1-NPN; three replicates; mean ± SE

Structure (SMILES): CCCCCCCCCCCCO [1-Dodecanol]
- OBP14 F.D. (%) fluorescence displacement percent [1, 3]: 28.55%
- inhibition at 20 µM [2, 4]: 38.7%

Structure (SMILES): COC(=O)c1ccccc1 [Methyl benzoate]
- OBP14 F.D. (%) fluorescence displacement percent [1, 3]: 30.65%
- inhibition at 20 µM [2, 4]: 30.5%

Structure (SMILES): CCC/C=C/C=O [E2-Hexenal]
- OBP14 F.D. (%) fluorescence displacement percent [1, 3]: 32.34%
- OBP5 F.D. (%) fluorescence displacement percent [2, 5]: 33.10%

Structure (SMILES): CCCCCCCCO [1-Octanol]
- OBP14 F.D. (%) fluorescence displacement percent [1, 3]: 35.51%
- inhibition at 20 µM [2, 4]: 35%

Structure (SMILES): CCCCCCCCCO [1-Nonanol]
- OBP14 F.D. (%) fluorescence displacement percent [1, 3]: 29.98%
- inhibition at 20 µM [2, 4]: 39.6%

Structure (SMILES): CCCCCCCCCCCC(=O)OC [Methyl laurate]
- OBP14 F.D. (%) fluorescence displacement percent [1, 3]: 12.60%
- inhibition at 20 µM [2, 4]: 7.25%

Structure (SMILES): CCCCCCCCCCCC=O [Dodecanal]
- OBP14 F.D. (%) fluorescence displacement percent [1, 3]: 3.43%
- inhibition at 20 µM [2, 4]: 30.6%

Structure (SMILES): CCC/C=C/CO [E2-Hexen-1-ol]
- OBP14 F.D. (%) fluorescence displacement percent [1, 3]: 18.64%
- OBP5 F.D. (%) fluorescence displacement percent [2, 5]: 36.50%

Structure (SMILES): CC1(C)[C@H](C(=O)O[C@H](C#N)c2cccc(Oc3ccccc3)c2)[C@@H]1C=C(Br)Br [Deltamethrin]
- OBP14 F.D. (%) fluorescence displacement percent [1, 3]: 38.21%
- inhibition at 20 µM [2, 4]: 28.5%

Structure (SMILES): CCCCCCC=O [Heptanal]
- OBP14 F.D. (%) fluorescence displacement percent [1, 3]: 25.87%
- inhibition at 20 µM [2, 4]: 42.5%

Structure (SMILES): CCCCCCCCCCCCCCCCCC [Octadecane]
- OBP14 F.D. (%) fluorescence displacement percent [1, 3]: 23.94%
- inhibition at 20 µM [2, 4]: 26.5%

Structure (SMILES): CCC(C)CO (centres unmarked) [2-Methyl-1-butanol]
- OBP14 F.D. (%) fluorescence displacement percent [1, 3]: 27.78%
- inhibition at 20 µM [2, 4]: 36%

Structure (SMILES): CCCCCCCCCCCCCCCCO [1-Hexadecanol]
- OBP14 F.D. (%) fluorescence displacement percent [1, 3]: 31.97%
- inhibition at 20 µM [2, 4]: 37%

Structure (SMILES): CCCCCCCCCCCCCCCCCCCCCCC [Tricosane]
- OBP14 F.D. (%) fluorescence displacement percent [1, 3]: 27.90%
- inhibition at 20 µM [2, 4]: 32.8%

Structure (SMILES): CCOP(=S)(OCC)Oc1nc(Cl)c(Cl)cc1Cl [Chlorpyrifos]
- Ki ([1]; listed as chlorpyrifos): < 13 µM
- Ki [1]: 4.62 ± 0.46 µM
- OBP14 F.D. (%) fluorescence displacement percent [1, 3]: 72.41%
- inhibition at 20 µM [2, 6]: 66.1%
- Ki [2, 7]: 5.92 ± 0.48 µM
- Ki ([2]; read-out: OBP5 Ki (dissociation constant); competitive displacement of 1-NPN; three replicates; mean ± SE; listed as chlorpyrifos): < 13 µM

Structure (SMILES): CCCCCCO [1-Hexanol]
- OBP14 F.D. (%) fluorescence displacement percent [1, 3]: 40.27%
- inhibition at 20 µM [2, 4]: 38.9%

Structure (SMILES): CC(=O)/C=C/C1=C(C)CCCC1(C)C [β-Ionone]
- Ki ([1]; listed as β-ionone): < 13 µM
- Ki [1]: 8.39 ± 1.04 µM
- OBP14 F.D. (%) fluorescence displacement percent [1, 3]: 62.86%
- Ki ([2]; competitive displacement of 1-NPN; three replicates; mean ± SE; listed as β-ionone; read-out: OBP5 Ki (dissociation constant)): < 13 µM
- Ki ([2]; competitive displacement of 1-NPN; three replicates; mean ± SE; read-out: OBP5 Ki (dissociation constant)): 9.11 ± 1.03 µM
- inhibition at 20 µM [2, 4]: 59.5%

Structure (SMILES): CCCCCCCCCCCC(=O)O [Lauric acid]
- OBP14 F.D. (%) fluorescence displacement percent [1, 3]: 30.18%
- OBP5 F.D. (%) fluorescence displacement percent [2, 5]: 33.87%

Structure (SMILES): CC1=C(C=O)C(C)(C)CCC1 [β-Cyclocitral]
- OBP14 F.D. (%) fluorescence displacement percent [1, 3]: 32.77%
- OBP5 F.D. (%) fluorescence displacement percent [2, 5]: 32.90%

Structure (SMILES): CCCC(=O)CC [3-Hexanone]
- OBP14 F.D. (%) fluorescence displacement percent [1, 3]: 36.58%
- inhibition at 20 µM [2, 4]: 25.3%

Structure (SMILES): CC(=O)OC/C=C(\C)CCC=C(C)C [Geranyl acetate]
- OBP14 F.D. (%) fluorescence displacement percent [1, 3]: 27.39%
- inhibition at 20 µM [2, 4]: 26.5%

Structure (SMILES): CCCC(=O)OCC [Ethyl butyrate]
- OBP14 F.D. (%) fluorescence displacement percent [1, 3]: 31.72%
- inhibition at 20 µM [2, 4]: 32%

Structure (SMILES): O=CCc1ccccc1 [Phenylacetaldehyde]
- OBP14 F.D. (%) fluorescence displacement percent [1, 3]: 33.05%
- inhibition at 20 µM [2, 4]: 29.1%

Structure (SMILES): CCCCCCCCC=O [Nonanal]
- OBP14 F.D. (%) fluorescence displacement percent [1, 3]: 23.55%
- inhibition at 20 µM [2, 4]: 31.5%

Structure (SMILES): C=CC(=C)CCC=C(C)C [Myrcene]
- OBP14 F.D. (%) fluorescence displacement percent [1, 3]: 34.84%
- inhibition at 20 µM [2, 4]: 37.1%

Structure (SMILES): CCCCCCCCCC=O [Decanal]
- OBP14 F.D. (%) fluorescence displacement percent [1, 3]: 21.35%
- inhibition at 20 µM [2, 4]: 29.1%

Structure (SMILES): CCCCCCCCCCC=O [Undecanal]
- OBP14 F.D. (%) fluorescence displacement percent [1, 3]: 35.28%
- inhibition at 20 µM [2, 4]: 27.8%

Structure (SMILES): CC1=CCC(C(C)C)=CC1 [γ-Terpinene]
- OBP14 F.D. (%) fluorescence displacement percent [1, 3]: 24.46%
- inhibition at 20 µM [2, 4]: 28.2%

Structure (SMILES): CCCCCCCCCCCCCC [Tetradecane]
- OBP14 F.D. (%) fluorescence displacement percent [1, 3]: 27.13%
- inhibition at 20 µM [2, 4]: 25%

Structure (SMILES): CCCCCCCCCCC [Undecane]
- OBP14 F.D. (%) fluorescence displacement percent [1, 3]: 6.47%
- inhibition at 20 µM [2, 4]: 4.42%

Structure (SMILES): CCCCCCCCCCO [1-Decanol]
- OBP14 F.D. (%) fluorescence displacement percent [1, 3]: 31.32%
- inhibition at 20 µM [2, 4]: 31.4%

Structure (SMILES): C=CC(C)(O)CCC=C(C)C (centres unmarked) [Linalool]
- OBP14 F.D. (%) fluorescence displacement percent [1, 3]: 31.71%
- inhibition at 20 µM [2, 4]: 33.3%

Structure (SMILES): CC1=CCC2C(C1)C2(C)C (centres unmarked) [3-Carene]
- OBP14 F.D. (%) fluorescence displacement percent [1, 3]: 29.92%
- inhibition at 20 µM [2, 4]: 41.6%

Structure (SMILES): O=C(Oc1ccccc1)c1ccccc1 [Phenyl benzoate]
- OBP14 F.D. (%) fluorescence displacement percent [1, 3]: 34.36%
- inhibition at 20 µM [2, 4]: 31.7%

Structure (SMILES): COC(C)=O [Methyl acetate]
- OBP14 F.D. (%) fluorescence displacement percent [1, 3]: 27.21%
- OBP5 F.D. (%) fluorescence displacement percent [2, 5]: 27.62%

Structure (SMILES): CC(C)=CCC/C(C)=C/CC/C(C)=C/CO [Farnesol]
- OBP14 F.D. (%) fluorescence displacement percent [1, 3]: 36.20%
- inhibition at 20 µM [2, 4]: 36.3%

Structure (SMILES): CC/C=C\CCOC(=O)CCC [Z3-Hexenyl butyrate]
- OBP14 F.D. (%) fluorescence displacement percent ([1]; pH 7.4): 26.39%
- OBP5 F.D. (%) fluorescence displacement percent [2, 5]: 20.80%

Structure (SMILES): CCCCCCCC=O [Octanal]
- OBP14 F.D. (%) fluorescence displacement percent [1, 3]: 34.48%
- inhibition at 20 µM [2, 4]: 35.6%

Structure (SMILES): C=CC(C)=CCC=C(C)C [Ocimene]
- OBP14 F.D. (%) fluorescence displacement percent [1, 3]: 33.18%
- OBP5 F.D. (%) fluorescence displacement percent [2, 5]: 33.97%

Structure (SMILES): C=C(C)[C@H]1Cc2c(ccc3c2O[C@@H]2COc4cc(OC)c(OC)cc4[C@@H]2C3=O)O1 [Rotenone]
- Ki [1]: < 13 µM and 10.2 µM
- OBP14 F.D. (%) fluorescence displacement percent [1, 3]: 58.66%
- inhibition at 20 µM [2, 6]: 56%
- Ki [2, 7]: < 13 µM and 12.7 µM

Structure (SMILES): c1ccc(Nc2cccc3ccccc23)cc1 [1-NPN, N-phenyl-1-naphthylamine]
- Kd ([1]; 2 μM protein, 2–16 μM 1-NPN, 20 mM Tris-HCl pH 7.4, read-out: K1-NPN binding constant of DabiOBP14 and 1-NPN): 4.5 ± 0.42 µM
- Kd ([2]; 2 μM protein, 2–16 μM 1-NPN, 20 mM Tris-HCl pH 7.4; read-out: K1-NPN binding constant of DabiOBP5 and 1-NPN): 7.49 ± 0.69 µM
